This is an account of results in patent US10087156B2, “Methods and compositions related to retinoid receptor-selective pathway” (Sanford Burnham Prebys Medical Discovery Institute, priority 2010, dated 2018).

For one assay, the system named is MCF-7 breast tumor. The assay is described as follows: MCF-7 breast tumor growth, oral administration. Type of assay: in vivo. Particulars: mice, 15, 30, 60 mg/kg by gavage once daily, 20 days. The protocol:
The growth inhibitory effect of oral administration of K-80003 on MCF-7 breast tumor tissue grown in mice was investigated. K-80003 was dissolved in NaHCO3 (pH 8.0). Mice with MCF-7 breast tumor tissue were administered 15 mg/kg K-80003, 30 mg/kg K-80003, 60 mg/kg K-80003, or a control in 100 ul total volume by gavage once daily.

A further assay concerns RXRα/Δ80 tumor. Description: RXRα/Δ80 tumor growth in animals. Type of assay: in vivo. Particulars: mice, 60 mg/kg intraperitoneally, two weeks. As to the method: Mice (n=6) were treated intraperitoneally with corn oil, Sulindac (60 mg/kg), or K-80003 (60 mg/kg) for two weeks. Tumors were removed and measured. […] Together, the RXRα-selective Sulindac analog K-80003 is a potent inhibitor of RXRα-mediated PI3K/AKT signaling and cancer cell growth.

Another assay deals with HepG2 cells. The assay is described as follows: Bax activation by Bax/6A7 immunostaining. Type of assay: cell-based. The protocol: Activation of Bax by Sulindac and TNFα. HepG2 cells treated with TNFα and/or Sulindac were immunostained with Bax/6A7 antibody. […] HepG2 cells treated with TNFα or Sulindac alone or together were examined for Bax activation by immunostaining using conformation-sensitive Bax/6A7 antibody. Significant Bax staining was observed only when cells were treated with both TNFα and Sulindac (FIG. 6E). Cross-talk between extrinsic and intrinsic apoptotic pathways can be linked through Bid cleavage and activation (Li et al., Cell 94 (4), 491-501 (1998)). […] PC3 cells transfected with CA-AKT or DN-AKT were treated with TNFα and/or Sulindac, and analyzed by immunoblotting (FIG. 6F). Activation of caspase-8 (FIG. 6G) and Bax (FIG. 6H) by Sulindac and TNFα. HepG2 cells transfected with CA-AKT were treated with TNFα and Sulindac, and immunostained with anti-cleaved caspase-8 or Bax/6A7 antibody. […] Sulindac/TNFα-induced PARP cleavage was inhibited by transfection of constitutive-active AKT (CA-AKT) but enhanced by transfection of dominant-negative AKT (DN-AKT) (FIG. 6F). Consistently, induction of apoptosis (FIG. 17B) and activation of caspase-8 (FIG. 6G) and Bax (FIG. 6H) by Sulindac/TNFα combination was inhibited by CA-AKT.

The next assay has as its system COX. Particulars: Haanen, 2001; cited from earlier work.

For `CC1=C(CC(=O)O)c2cc(F)ccc2/C1=C\c1ccc(C(C)C)cc1` [K-80003, (Z)-2-(3-(4-Iso-propylbenzylidene)-6-fluoro-2-methyl-3H-inden-1-yl)acetic acid], the “tumor volume compared to control” value in the assay on MCF-7 breast tumor is on record as “dose-dependent decrease in tumor volume”. Besides, in the assay on RXRα/Δ80 tumor, the “inhibition of RXRα/Δ80 tumor growth, compared with Sulindac” value is on record as “much more potent inhibitory effect than Sulindac”.
In the case of `CSc1ccc(/C=C2/C(C)=C(CC(=O)O)c3cc(F)ccc32)cc1` [Sulindac, (Z)-2-(3-(4-(Methylthio)benzylidene)-6-fluoro-2-methyl-3H-inden-1-yl)acetic acid], the “cells showing Bax staining, Sulindac/TNFα” value in the assay on HepG2 cells (Bax/6A7 antibody) was “about 60%”. For the same compound, in the assay with HepG2 cells (TNFα and Sulindac), the “cells exhibiting Bax staining, CA-AKT-transfected” value was “about 13%” and the “cells exhibiting Bax staining, nontransfected” value is given as “About 60%”. In the assay on COX, the COX-inhibiting activity entry is recorded as “potent COX inhibitor”.
